Laboratory results published in patent publication US20250302712A1, “COMPOSITION FOR SKIN MOISTURIZING COMPRISING PHENYLLACTIC ACID” (AMOREPACIFIC CORPORATION, priority 2024, published 2025).

Test system: HAS2 (Hyaluronan synthase 2)
Assay: HAS2 gene expression in blue light irradiated human keratinocytes (HaCaT), Taqman real-time PCR
Assay type: cell-based
Settings: blue light 410 nm 120 J/cm^2, PLA 50 μM (8.3 ppm)
Protocol: The Lactobacillus plantarum APsulloc 331261 (KCCM11179P) strain used in Experimental Example above was inoculated into a medium containing MRS broth, phenylalanine at a concentration of 40 mM, and calcium carbonate at a concentration of 1%, and the culture medium was cultured for 3 days. The cells were removed by centrifugation, and 1 liter was prepared. An equal amount of ethyl acetate was added to the prepared culture medium and the reaction was performed, and the water layer and the ethyl acetate layer of the culture medium were waited for separation. The separated ethyl acetate layer was heated and distilled, and an appropriate amount of water (about 100 mL) was added to the remaining concentrate to prepare a Lactobacillus culture extract containing phenyllactic acid. […]
In addition, the hyaluronic acid production promotion effect of the culture medium of Lactobacillus strains prepared as shown in Table 1 was compared. The strains Lactobacillus plantarum APsulloc 331261 (KCCM11179P), Lactobacillus plantarum KCTC3108, Lactobacillus acidophilus KCTC3164, and Lactobacillus sakei KTCT3603 were inoculated into MRS broth, and 0.5% of the culture medium static-cultured at 35° C. for 3 days was added, and the gene expression amount of HAS2 (Hyaluronan synthase 2) was measured in the same manner as above.

For `O=C(O)C(O)Cc1ccccc1` (stereo not shown) [PLA, Phenyllactic acid], the HAS2 gene expression was “significantly improved the decrease in HAS2 gene expression caused by blue light”.
